Test results: ChEMBL document CHEMBL3988442, “University of Dundee, Small-Polar-MMV Screening Library” (2021)
Several values for one entry are separate records, joined by “and”; a condition that tells them apart may be missing. Equal values may be shown once.

How the values were obtained:
Leishmania donovani = assay: Leishmania intramacrophage assay; format: functional, organism-based; settings: for IC50: Leishmania donovani
[1] = molecular target: T1, Coenzyme A biosynthesis bifunctional protein CoaBC (Mycobacterium tuberculosis (strain ATCC 25618 / H37Rv), UniProt P9WNZ1); assay: Biomol Green assay for MtCoaBC inhibitor, OD650 read; format: functional
T1 sequence (P9WNZ1 whole entry): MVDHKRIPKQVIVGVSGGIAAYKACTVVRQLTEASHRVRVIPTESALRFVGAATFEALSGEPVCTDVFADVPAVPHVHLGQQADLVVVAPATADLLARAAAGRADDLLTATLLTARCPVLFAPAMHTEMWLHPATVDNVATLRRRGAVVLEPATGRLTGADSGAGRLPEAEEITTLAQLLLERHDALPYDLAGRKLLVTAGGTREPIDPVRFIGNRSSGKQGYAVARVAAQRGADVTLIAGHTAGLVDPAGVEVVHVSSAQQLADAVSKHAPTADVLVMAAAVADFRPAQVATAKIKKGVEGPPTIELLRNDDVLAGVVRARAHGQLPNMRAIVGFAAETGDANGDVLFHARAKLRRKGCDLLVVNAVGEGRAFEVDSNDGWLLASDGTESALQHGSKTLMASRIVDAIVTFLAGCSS

[2] = In vitro enzyme assay to detect hydrolysis of chlorophenol red-beta-D-[…] directly proportional to the number of Toxoplasma stably expressing beta-galactosidase; format: functional, organism-based, Toxoplasma gondii; settings: for IC50: Toxoplasma gondii
ClpP1P2 = ClpP1P2 (Mycobacterium tuberculosis (strain ATCC 25618 / H37Rv), UniProt P9WPC3+P9WPC5); assay: in vitro assay to detect presence of AMC directly proportional to the activity of ClpP1P2. GHDDI collaboration.; format: functional
Histidine--tRNA ligase = molecular target: T2, Histidine--tRNA ligase (Leishmania infantum, UniProt A4I591); assay: Leishmania infantum Histidine tRNA synthetase (LdHisRS); format: functional
T2 sequence (A4I591 whole entry): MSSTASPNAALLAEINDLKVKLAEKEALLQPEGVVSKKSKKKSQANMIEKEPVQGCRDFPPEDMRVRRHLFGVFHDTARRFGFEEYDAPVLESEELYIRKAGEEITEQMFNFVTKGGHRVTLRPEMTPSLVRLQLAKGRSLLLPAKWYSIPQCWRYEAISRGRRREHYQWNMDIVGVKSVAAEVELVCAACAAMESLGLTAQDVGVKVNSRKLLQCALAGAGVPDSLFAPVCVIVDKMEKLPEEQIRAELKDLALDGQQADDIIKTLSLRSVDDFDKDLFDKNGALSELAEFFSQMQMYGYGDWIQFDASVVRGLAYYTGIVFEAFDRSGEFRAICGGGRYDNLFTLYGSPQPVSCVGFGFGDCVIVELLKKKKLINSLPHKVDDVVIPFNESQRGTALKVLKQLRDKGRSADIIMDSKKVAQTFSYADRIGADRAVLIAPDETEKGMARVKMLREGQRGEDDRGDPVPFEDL

[3] = microbe, parasite or virus in culture; settings: Mycobacterium tuberculosis, 72 h, read-out: pIC50 (converted)
[4] = microbe, parasite or virus in culture; settings: Mycobacterium tuberculosis, 96 h, read-out: pIC50 (converted)
Tryptophan--tRNA ligase = Tryptophan--tRNA ligase (Mycobacterium tuberculosis (strain ATCC 25618 / H37Rv), UniProt P9WFT3); assay: Biochemical assay for Mt-TrpRS; format: functional
Plasmodium falciparum = assay: Calibr Malaria Delayed Death Assay SOP; format: functional, organism-based; settings: for IC50: Plasmodium falciparum
Schistosoma mansoni = assay: High throughput screening of compounds against Schistosoma mansoni motility; format: functional; design: dose or concentration left out as unconfirmed

Compound | IC50 (Leishmania donovani) [µM] | pIC50 (Leishmania donovani) | pIC50 (Plasmodium falciparum) | IC50 (Plasmodium falciparum) [µM] | other results
OC(c1ccccc1)C1CCN(Cc2csc(-c3ncccn3)n2)CC1 (stereo not drawn) | > 50.1 |  |  |  | 
CCS(=O)(=O)c1ccc2oc([C@H]3CCN(Cc4ccccn4)C3)nc2c1 |  |  |  |  | IC50 [1]: > 30.2 µM
O=C(NC[C@H]1OC[C@@H](NCc2ccc(F)cc2)[C@@H]1O)N1CCOCC1 |  |  |  |  | IC50 [1]: > 30.2 µM
CCN(CC)CCNC(=O)c1ccc(-n2ccc3ccccc32)s1 | 11.2 |  |  |  | IC50 [2]: 7.53 µM
CN(C)S(=O)(=O)c1ccc(-c2nc(C#N)c(NC3CCCCC3)o2)o1 | > 50.1 |  |  |  | IC50 (ClpP1P2): > 100 µM
CNC(=O)[C@@]12CCC3(CCN(S(=O)(=O)C4CC4)CC3)[C@@H]1CN(C(C)=O)C2 |  |  |  |  | IC50 [1]: > 30.2 µM
CC1c2ncc(Cn3cncn3)n2CCN1C(=O)c1ccsc1 (stereo not drawn) |  |  |  |  | IC50 [1]: > 30.2 µM
CC(C)CNc1nc2c(cc1C(=O)NCC1CC1)CCNCC2 | 17.7 | 4.725 |  |  | IC50 (ClpP1P2): > 100 µM
CCOc1c(Cl)cc(Cl)cc1CNCCCn1ccnc1 | 16 |  |  |  | IC50 (Histidine--tRNA ligase): > 100 µM
O=C(NCCCN1CCCCC1)c1ccc(-n2ccc3ccccc32)s1 | 7.13 | 5.277 |  |  | IC50 [2]: 6.04 µM; IC50 [3]: 28.1 µM; IC50 [4]: > 50.1 µM
COc1ccc(C2=Nn3c(CCN)nnc3-c3ccccc3C2)cc1 | 17.9 | 4.676 |  |  | IC50 (Histidine--tRNA ligase): > 100 µM
N[C@@H]1CCC[C@@H](Oc2ccc(F)cc2Oc2ccccc2)[C@@H]1O | 11.2 | 4.886 | 6.155 | 0.602 | IC50 (Tryptophan--tRNA ligase): > 195 µM
N[C@@H]1CCC[C@@H](Oc2ccc(F)cc2Oc2cccc(F)c2)[C@@H]1O | > 50.1 |  |  |  | IC50 (Tryptophan--tRNA ligase): > 195 µM
c1ccc(C2=NOC3(CCN(Cc4c[nH]c5ccccc45)CC3)C2)cc1 | 18.3 | 4.869 |  |  | pIC50 [2]: 5.08; IC50 [2]: 6.84 µM
CN1CCC(N(Cc2ccco2)S(=O)(=O)c2ccc(Br)cc2Cl)CC1 | 20.9 | 4.643 | 6.36 | 0.473 | 
CN1CCN(CC(NCc2ccc(F)c(F)c2)c2ccccc2)CC1 (stereo not drawn) | 11.3 |  | 6.278 | 0.618 | IC50 [3]: 17.1 µM; IC50 [4]: > 50.1 µM
COc1cccc(CNC(CN2CCN(C)CC2)c2ccccc2)c1 (stereo not drawn) | 22 | 4.672 | 6.596 | 0.308 | 
Cc1ccc(CNC(CN2CCN(C)CC2)c2ccccc2)cc1 (stereo not drawn) | 12.8 | 5.055 | 6.589 | 0.247 | 
Cc1cccc(CNC(CN2CCN(C)CC2)c2ccccc2)c1 (stereo not drawn) | 6.36 | 5.046 | 6.605 | 0.185 | 
CCSc1cc(C(=O)NCc2ccccc2O)ccn1 | > 50.1 |  |  |  | Percent Effect (Schistosoma mansoni): -44.04%

Compound | IC50 (Leishmania donovani) [µM] | pIC50 (Leishmania donovani) | pIC50 (Plasmodium falciparum) | IC50 (Plasmodium falciparum) [µM] | other results
Cc1cc(N2CCC(N(C)C(=O)c3ccccc3)CC2)nc(C)n1 | > 50.1 |  |  |  | Percent Effect (Schistosoma mansoni): -7.781%
COc1c(F)cc(-c2cccc3c2OC(CN)C3)cc1F (stereo not drawn) | 19.2 | 4.693 |  |  | IC50 [3]: 36.7 µM; IC50 [4]: 22.9 µM
NCC1CCCN(c2nc(-c3ccccc3)nc3c2CCNCC3)C1 (stereo not drawn) | 27.2 |  |  |  | IC50 [3]: 11.3 µM; IC50 [4]: 17.7 µM
Clc1ccccc1C1(c2ccnc(C3CCCC3)n2)CCNCC1 | 6.68 |  | 6.419 | 0.399 | pIC50 [2]: 5.147; IC50 [2]: 13 µM
Clc1ccccc1C1(c2ccnc(C3CC3)n2)CCNCC1 | 23.9 |  | 6.224 | 0.536 | pIC50 [2]: 4.703; IC50 [2]: 15.4 µM
Cc1ccc2[nH]c(-c3cn(C4CCNCC4)nn3)nc2c1C | 20.4 | 4.614 | 6.454 | 0.325 | 
Nc1nccc(N2CCC(c3cc(Cc4ccccc4)n[nH]3)CC2)n1 | 42 | 4.363 |  |  | pIC50 [2]: 4.837; IC50 [2]: 20.2 µM
c1ccc(C2CCCN(c3ncnc4c3CCNC4)CC2)cc1 (stereo not drawn) | 18.1 | 4.655 |  |  | IC50 [3]: > 50.1 µM; IC50 [4]: > 50.1 µM
COc1cc(C)c(-c2ccc(F)c3c2OC(CN)C3)cc1C (stereo not drawn) | 7.27 | 4.996 |  |  | IC50 [3]: > 50.1 µM; IC50 [4]: > 50.1 µM
Cc1nc(C2CCN(C)CC2)cc(N2CCOc3ccc(Cl)cc3C2)n1 | 14.9 | 4.959 |  |  | IC50 [3]: 32.6 µM; IC50 [4]: > 50.1 µM
Cc1ccc(-c2cc(CNc3ncnc4c3CCNCC4)no2)cc1 | 8.55 | 4.865 |  |  | IC50 [2]: 9.58 µM
Cc1nc(CCN)cc(N2CCC(O)(c3ccc(Cl)cc3)CC2)n1 | > 50.1 |  |  |  | IC50 (Histidine--tRNA ligase): 46.4 µM and 42.8 µM
CC(C)c1nccc(C2(c3ccccc3Cl)CCNCC2)n1 | 26.3 |  | 6.087 | 0.789 | 
Cc1nc(CCN)cc(N2CCOc3ccc(Cl)cc3C2)n1 | 11.2 | 4.773 |  |  | IC50 (Histidine--tRNA ligase): 41.7 µM and 34.2 µM
Cc1cc2nc(-c3cn(C4CCNCC4)nn3)[nH]c2cc1C | 21.2 | 4.64 | 6.549 | 0.273 | 
CCN(CCN(C)C)c1nc(CCN)nc2sc(C)c(C)c12 | > 50.1 |  | 5.974 | 1.21 | IC50 (Histidine--tRNA ligase): 49.3 µM and 36.3 µM
O=C(C1CNCCO1)N1CCCC(c2ccccc2)(c2ccccc2)C1 (stereo not drawn) | 11.6 | 4.781 | 6.124 | 0.975 | 
Cc1ccc(-c2nc(CNC(C)CCO)[nH]c2-c2ccccn2)cc1 (stereo not drawn) |  | 4.821 and 4.459 | 5.824 | 1.25 | 
CCOC(=O)N1CCN(c2nc(CCN)nc3sc(C)c(C)c23)CC1 | > 50.1 |  | 5.898 | 1.12 | IC50 (Histidine--tRNA ligase): 21.8 µM and 19.6 µM
COc1cc(OC)cc(-c2cccc3c2OC(CN)C3)c1 (stereo not drawn) | 18.3 | 4.734 |  |  | IC50 [3]: 1.33 µM; IC50 [4]: 20 µM

Compound | IC50 (Leishmania donovani) [µM] | pIC50 (Leishmania donovani) | pIC50 (Plasmodium falciparum) | IC50 (Plasmodium falciparum) [µM] | other results
Cc1c(C(=O)N2CCC(N3CCCCC3)CC2)n(C)c2ccc(Cl)cc12 | 13.5 | 4.818 | 6.009 | 1.07 | 
COc1ccc(-c2cccc3c2OC(CN)C3)cc1F (stereo not drawn) | 22.2 | 4.618 |  |  | IC50 [3]: > 50.1 µM; IC50 [4]: 34.7 µM
CC(C)(C)c1nccc(C2(c3ccccc3Cl)CCNCC2)n1 | 7.19 |  | 6.385 | 0.667 | pIC50 [2]: 4.939 and 5.272
C1Cc2nc(CCNc3nc(C4CC4)nc4c3CCNCC4)sc2C1 | 5.69 | 5.261 and 5.322 |  |  | IC50 [2]: 12.6 µM
Clc1ccccc1C1(c2ccnc(CC3CC3)n2)CCNCC1 |  | 4.801 and 4.355 | 6.68 | 0.268 | 
Cc1cc(N2CCCCCC2)n2nc(C)c(C)c2n1 | > 50.1 |  |  |  | Percent Effect (Schistosoma mansoni): -21.59%
Clc1ccccc1C1(c2ccnc(-c3ccncc3)n2)CCNCC1 | 18.6 | 4.623 | 6.636 | 0.264 | 
CC(=O)NC1CCCN(Cc2csc(-c3ncccn3)n2)C1 (stereo not drawn) | > 50.1 |  |  |  | 
NC(=O)C1CCN(Cc2csc(-c3ncccn3)n2)CC1 | > 50.1 |  |  |  | 
CC(O)CN1CCC(CNCc2cccc(OC(F)(F)F)c2)CC1 (stereo not drawn) | 16.8 | 4.85 | 6.17 | 0.909 | 
CC(O)CN1CCC(CNCc2ccc(OC(F)(F)F)cc2)CC1 (stereo not drawn) | 9.27 | 5.001 | 5.989 | 0.959 | 
O=C(NCc1ccccn1)C1=NN(c2ccccc2)C(=O)CN1 | > 50.1 |  |  |  | 
COc1ccc(CNc2cnn(C)c(=O)c2Cl)cc1 | > 50.1 |  |  |  | 
O=C(CCc1cscn1)N1CCCC(n2ccnc2)C1 (stereo not drawn) | > 50.1 |  |  |  | 
Cc1nccn1CCCn1cncc1-c1ccc2c(c1)CC(C)N2C (stereo not drawn) | > 50.1 |  |  |  | IC50 (Histidine--tRNA ligase): 20.5 µM and 22.8 µM
O=C(c1c[nH]cn1)N1CCC(F)(F)C2(CCN(c3cccc(F)c3)C2)C1 (stereo not drawn) | > 50.1 |  |  |  | IC50 [3]: > 50.1 µM; IC50 [4]: > 50.1 µM
CC(C)c1nc(-c2cc(C(=O)NCCN(C)C)c3ccccn23)cs1.O=C(O)C(F)(F)F | 18.9 | 4.846 |  |  | IC50 [3]: > 50.1 µM; IC50 [4]: > 50.1 µM
Cn1cc(CN2CCC(F)(F)C3(CCN(c4cnccn4)C3)C2)cn1 (stereo not drawn) | > 50.1 |  |  |  | IC50 [3]: > 50.1 µM; IC50 [4]: > 50.1 µM
